What all share (assay type): cell-based
The target of one assay is T1, human TLR7 (Homo sapiens, UniProt Q9NYK1).
T1 construct: host or cells: HEK-Blue cells (HEK293-derived reporter line)
T1 sequence (Q9NYK1 27-1049): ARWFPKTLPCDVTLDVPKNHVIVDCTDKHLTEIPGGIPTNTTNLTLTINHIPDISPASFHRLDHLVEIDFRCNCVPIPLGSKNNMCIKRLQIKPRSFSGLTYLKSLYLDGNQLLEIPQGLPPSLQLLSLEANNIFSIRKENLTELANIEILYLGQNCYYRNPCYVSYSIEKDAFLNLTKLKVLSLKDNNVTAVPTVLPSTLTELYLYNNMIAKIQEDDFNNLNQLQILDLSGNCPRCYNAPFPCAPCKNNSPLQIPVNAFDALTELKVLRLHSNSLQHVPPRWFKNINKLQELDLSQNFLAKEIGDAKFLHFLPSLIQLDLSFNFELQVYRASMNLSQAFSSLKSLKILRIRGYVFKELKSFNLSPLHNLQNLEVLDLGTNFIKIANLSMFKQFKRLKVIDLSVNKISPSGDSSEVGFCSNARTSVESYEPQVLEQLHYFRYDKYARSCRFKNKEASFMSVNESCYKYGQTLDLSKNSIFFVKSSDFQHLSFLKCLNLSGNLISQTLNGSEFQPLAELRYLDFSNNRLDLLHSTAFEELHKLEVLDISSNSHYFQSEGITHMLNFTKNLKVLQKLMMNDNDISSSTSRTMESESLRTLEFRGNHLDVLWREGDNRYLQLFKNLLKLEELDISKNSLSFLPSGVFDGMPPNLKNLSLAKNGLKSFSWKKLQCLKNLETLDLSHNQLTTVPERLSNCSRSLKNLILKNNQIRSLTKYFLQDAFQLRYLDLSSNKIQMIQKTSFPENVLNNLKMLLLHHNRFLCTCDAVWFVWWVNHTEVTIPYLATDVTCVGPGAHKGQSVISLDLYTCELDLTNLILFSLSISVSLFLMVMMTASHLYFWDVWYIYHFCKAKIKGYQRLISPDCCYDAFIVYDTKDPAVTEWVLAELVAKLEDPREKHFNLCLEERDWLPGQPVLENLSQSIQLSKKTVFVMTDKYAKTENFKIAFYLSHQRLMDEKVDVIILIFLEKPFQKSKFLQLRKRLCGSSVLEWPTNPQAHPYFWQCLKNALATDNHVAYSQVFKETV
The assay is described as follows: TLR7 inhibition reporter assay (HEK-Blue cells, SEAP reporter, gardiquimod stimulation). Conditions: HEK-Blue cells overexpressing human TLR7, SEAP reporter, gardiquimod 7.5 μM. An outline of the steps: (§1)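 Agonists (final): TLR7 gardiquimod 7.5 μM; TLR8 R848 15.9 μM; TLR9 ODN2006 5 nM. HEK-Blue reporter cells, 30 min RT compound pre-incubation, 0.05 nM–50 μM dose range, 22 h at 37 °C, colorimetric SEAP detection medium. % inhibition relative to agonist+DMSO and known-inhibitor wells.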

The next assay has as its target T2, human TLR8 (Homo sapiens, UniProt Q9NR97).
T2 construct: host or cells: HEK-Blue cells (HEK293-derived reporter line)
T2 sequence (Q9NR97 27-1041): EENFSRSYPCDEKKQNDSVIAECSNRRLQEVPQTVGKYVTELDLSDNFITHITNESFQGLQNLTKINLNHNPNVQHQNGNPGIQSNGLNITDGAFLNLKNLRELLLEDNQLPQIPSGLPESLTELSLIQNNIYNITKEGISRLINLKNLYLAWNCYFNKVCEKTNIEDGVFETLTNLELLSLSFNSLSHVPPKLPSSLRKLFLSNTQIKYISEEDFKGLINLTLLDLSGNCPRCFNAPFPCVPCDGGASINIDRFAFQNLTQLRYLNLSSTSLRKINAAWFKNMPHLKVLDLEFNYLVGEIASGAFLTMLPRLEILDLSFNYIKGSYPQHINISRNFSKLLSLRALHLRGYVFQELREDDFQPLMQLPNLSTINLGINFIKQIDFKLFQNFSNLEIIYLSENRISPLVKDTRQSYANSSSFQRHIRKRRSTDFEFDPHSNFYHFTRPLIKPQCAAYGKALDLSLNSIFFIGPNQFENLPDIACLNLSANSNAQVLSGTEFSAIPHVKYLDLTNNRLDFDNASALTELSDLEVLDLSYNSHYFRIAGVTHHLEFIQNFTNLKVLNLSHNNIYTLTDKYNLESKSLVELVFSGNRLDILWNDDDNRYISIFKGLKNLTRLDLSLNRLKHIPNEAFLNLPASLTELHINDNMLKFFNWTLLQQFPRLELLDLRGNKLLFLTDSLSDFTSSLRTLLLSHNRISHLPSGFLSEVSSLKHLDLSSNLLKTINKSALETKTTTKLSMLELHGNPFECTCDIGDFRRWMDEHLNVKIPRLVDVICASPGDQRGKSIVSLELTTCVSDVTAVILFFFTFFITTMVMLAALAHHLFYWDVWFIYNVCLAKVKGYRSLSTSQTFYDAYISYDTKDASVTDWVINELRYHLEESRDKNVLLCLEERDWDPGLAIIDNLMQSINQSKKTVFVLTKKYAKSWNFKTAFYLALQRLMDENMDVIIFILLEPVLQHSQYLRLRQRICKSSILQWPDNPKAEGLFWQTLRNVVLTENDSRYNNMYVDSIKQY
Kind of assay: TLR8 inhibition reporter assay (HEK-Blue cells, SEAP reporter, R848 stimulation). Conditions: HEK-Blue cells overexpressing human TLR8, SEAP reporter, R848 15.9 μM. An outline of the steps:
as §1

A further assay addresses T3, human TLR9 (Homo sapiens, UniProt Q9NR96).
T3 construct: host or cells: HEK-Blue cells (HEK293-derived reporter line)
T3 sequence (Q9NR96 26-1032): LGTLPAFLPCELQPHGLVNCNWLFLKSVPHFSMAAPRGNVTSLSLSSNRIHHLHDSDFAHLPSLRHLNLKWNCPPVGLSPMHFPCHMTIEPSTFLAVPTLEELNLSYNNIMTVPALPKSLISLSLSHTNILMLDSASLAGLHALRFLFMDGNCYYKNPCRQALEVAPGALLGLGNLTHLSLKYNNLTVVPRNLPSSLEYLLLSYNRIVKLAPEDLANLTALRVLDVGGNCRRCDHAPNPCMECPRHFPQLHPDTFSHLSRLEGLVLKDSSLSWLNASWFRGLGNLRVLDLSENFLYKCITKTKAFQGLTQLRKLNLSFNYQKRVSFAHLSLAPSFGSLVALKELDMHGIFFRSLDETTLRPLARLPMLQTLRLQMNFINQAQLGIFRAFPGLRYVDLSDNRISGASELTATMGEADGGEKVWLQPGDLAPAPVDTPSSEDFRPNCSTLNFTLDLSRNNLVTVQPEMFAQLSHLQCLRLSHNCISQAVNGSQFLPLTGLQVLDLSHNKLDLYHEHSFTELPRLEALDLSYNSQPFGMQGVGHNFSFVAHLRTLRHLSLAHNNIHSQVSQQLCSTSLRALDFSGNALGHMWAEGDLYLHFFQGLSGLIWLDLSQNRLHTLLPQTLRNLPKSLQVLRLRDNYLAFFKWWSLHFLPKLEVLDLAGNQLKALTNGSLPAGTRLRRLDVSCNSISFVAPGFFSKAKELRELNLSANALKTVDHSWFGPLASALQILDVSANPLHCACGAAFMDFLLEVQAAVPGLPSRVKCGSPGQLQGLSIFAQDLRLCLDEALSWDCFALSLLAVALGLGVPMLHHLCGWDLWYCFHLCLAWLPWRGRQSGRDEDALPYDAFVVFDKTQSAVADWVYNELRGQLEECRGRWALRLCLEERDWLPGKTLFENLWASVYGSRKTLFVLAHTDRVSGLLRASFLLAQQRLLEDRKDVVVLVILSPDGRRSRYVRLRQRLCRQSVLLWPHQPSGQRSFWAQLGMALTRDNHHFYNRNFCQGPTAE
The assay is described as follows: TLR9 inhibition reporter assay (HEK-Blue cells, SEAP reporter, ODN2006 stimulation). To be noted: HEK-Blue cells overexpressing human TLR9, SEAP reporter, ODN2006 5 nM. An outline of the steps:
as §1

Each structure is given as a SMILES string. Bounds are passed on as bounds.

The term IC50 denotes the point on the concentration scale where inhibition reaches its midpoint.

Consider `Cc1cc(-c2[nH]c3ccc(C4CCN(C(=O)CCN5CCC(F)(F)C5)CC4)cc3c2C(C)C)cn2nnnc12` [Example 626, 3-(3,3-difluoropyrrolidin-1-yl)-1-(4-(3-isopropyl-2-(8-methyltetrazolo[1,5-a]pyridin-6-yl)-1H-indol-5-yl)piperidin-1-yl)propan-1-one], for which the concentration for half-maximal inhibition (IC50) on human TLR7 was < 100 nM; on human TLR8, 100 to 1000 nM; against human TLR9, > 50000 nM.

Consider `CN(C)CC(=O)N1CCC(c2ccc3[nH]c(-c4ccnc5[nH]ncc45)c(CC(F)F)c3c2)CC1` [Example 517, 1-(4-(3-(2,2-difluoroethyl)-2-(1H-pyrazolo[3,4-b]pyridin-4-yl)-1H-indol-5-yl)piperidin-1-yl)-2-(dimethylamino)ethan-1-one], for which the IC50 is 100 to 1000 nM against human TLR7, < 100 nM against human TLR8 and 100 to 1000 nM against human TLR9.

Regarding `CNC(=O)CN1CCC(c2ccc3[nH]c(-c4ccn5nncc5c4)c(C(C)C)c3c2)CC1` [Example 303, 2-(4-(2-([1,2,3]triazolo[1,5-a]pyridin-5-yl)-3-isopropyl-1H-indol-5-yl)piperidin-1-yl)-N-methylacetamide], the IC50 against human TLR7 was < 100 nM; on human TLR8, 100 to 1000 nM; against human TLR9, 1000 to 50000 nM.

For the compound `Cc1nc2c(C)cc(-c3[nH]c4ccc(C5CCN(C(=O)CN(C)C)CC5)cc4c3C(C)C)cn2c1C` [Example 527, 2-(dimethylamino)-1-(4-(3-isopropyl-2-(2,3,8-trimethylimidazo[1,2-a]pyridin-6-yl)-1H-indol-5-yl)piperidin-1-yl)ethan-1-one], the IC50 against human TLR7 is < 100 nM; at human TLR8 it was 100 to 1000 nM; at human TLR9 it was 100 to 1000 nM.

On to `Cc1cc(-c2[nH]c3ccc(C4CCN(CC(N)=O)CC4)cc3c2C(C)C)cc2cnnn12` [Example 321, 2-(4-(3-isopropyl-2-(7-methyl-[1,2,3]triazolo[1,5-a]pyridin-5-yl)-1H-indol-5-yl)piperidin-1-yl)acetamide], for which the IC50 against human TLR7 was < 100 nM; on human TLR8, < 100 nM; at human TLR9 it was 1000 to 50000 nM.

As to `CC(C)c1c(-c2ccc(Cl)c3[nH]ncc23)[nH]c2ccc(C3CCN(C(=O)CN(C)C)CC3)cc12` [Example 556, 1-(4-(2-(7-chloro-1H-indazol-4-yl)-3-isopropyl-1H-indol-5-yl)piperidin-1-yl)-2-(dimethylamino)ethan-1-one], the figures for the concentration for half-maximal inhibition (IC50) against human TLR7, against human TLR8 and at human TLR9 were 100 to 1000 nM, 100 to 1000 nM and 1000 to 50000 nM, respectively.

In the case of `COc1cc(-c2[nH]c3ccc(C4CCN(C(=O)CN(C)C)CC4)cc3c2C(C)C)cn2ccnc12` [Example 558, 2-(dimethylamino)-1-(4-(3-isopropyl-2-(8-methoxyimidazo[1,2-a]pyridin-6-yl)-1H-indol-5-yl)piperidin-1-yl) ethan-1-one], the IC50 is < 100 nM on human TLR7, < 100 nM on human TLR8 and 100 to 1000 nM against human TLR9.

Turning to `CC(C)c1c(-c2ccn3nccc3c2)[nH]c2ccc(C3CCN(CC(=O)N(C)C)CC3)cc12` [Example 441, 2-(4-(3-isopropyl-2-(pyrazolo[1,5-a]pyridin-5-yl)-1H-indol-5-yl)piperidin-1-yl)-N,N-dimethylacetamide], the IC50 is < 100 nM on human TLR7, < 100 nM against human TLR8 and 1000 to 50000 nM on human TLR9.

In the case of `Cc1cc(-c2[nH]c3ccc(C4CCN(C5COC5)CC4)cc3c2C(C)C)cc2cccnc12` [Example 723, 6-(3-isopropyl-5-(1-(oxetan-3-yl)piperidin-4-yl)-1H-indol-2-yl)-8-methylquinoline], the values for the IC50 against human TLR7, at human TLR8 and on human TLR9 were < 100 nM, 100 to 1000 nM and 1000 to 50000 nM, respectively.

In the case of `CC(C)c1c(-c2c[nH]c3ncncc23)[nH]c2ccc(C3CCNCC3)cc12` [Example 13, 5-(3-isopropyl-5-(piperidin-4-yl)-1H-indol-2-yl)-7H-pyrrolo[2,3-d]pyrimidine], the IC50 was < 100 nM on human TLR7, < 100 nM against human TLR8 and 100 to 1000 nM at human TLR9.

Turning to `COc1c(C)c(-c2[nH]c3ccc(C4CCN(C5CCOCC5)CC4)cc3c2C(C)C)nn2ncnc12` [Example 685, 6-(3-isopropyl-5-(1-(tetrahydro-2H-pyran-4-yl)piperidin-4-yl)-1H-indol-2-yl)-8-methoxy-7-methyl-[1,2,4]triazolo[1,5-b]pyridazine], the values for the 50% inhibitory concentration (IC50) against human TLR7, on human TLR8 and against human TLR9 were < 100 nM, < 100 nM and 1000 to 50000 nM, respectively.

In the case of `CC(C)c1c(-c2ccc3ncnn3n2)[nH]c2ccc(C3CCN(C4CCOCC4)CC3)cc12` [Example 683, 6-(3-isopropyl-5-(1-(tetrahydro-2H-pyran-4-yl)piperidin-4-yl)-1H-indol-2-yl)-[1,2,4]triazolo[1,5-b]pyridazine], the IC50 was < 100 nM against human TLR7, < 100 nM on human TLR8 and 1000 to 50000 nM against human TLR9.
